Assay results published in US20200282010A1, “IMMUNOGENIC COMPOSITIONS AND USES THEREFOR” (Epiaxis Therapeutics Pty Ltd, priority 2017, published 2020).

Assays:
[1] = test system: PBMC cells isolated from CR and PD melanoma liquid biopsies; assay: RT-PCR expression of IL-2, IFN-γ and TNF-α in PBMCs from melanoma patient liquid biopsies; type: cell-based, human; settings: FIG. 2B
Description: FIG. 2 is a photographic and graphical representation depicting a PKC-θ resistance signature in CD8^+ T-cells from BRAF negative melanoma patients. A) Melanoma patient formalin-fixed paraffin-embedded (FFPE) tissue from primary tumor baseline biopsy for either a complete response (CR), stable disease (SD) or progressive disease (PD) was processed by 3D high resolution microscopy using a Leica Bond RX Stainer. FFPE tissues were fixed and immunofluorescence microscopy was performed probing with primary antibodies to anti-PD1, anti-PKC-θ (T538p) and anti-CD8 with DAPI. Representative images for each dataset are shown. Graph plots represent the TCFI values for CD8, TNFI for PKC-θ and TCFI for PD1 measured using ImageJ minus background (N=40 cells per a patient sample). B) Peripheral blood mononuclear cells (PBMCs) isolated from melanoma patient liquid biopsies were pre-clinically screened with either control or PKCθi nuclear peptide inhibitor. PBMC Samples were screened in triplicate for expression of IL-2, IFN-γ and TNF-α. C) Melanoma patient FFPE tissue from primary tumor baseline biopsy for CR, SD and two PD cohorts defined by responder or resistant to Dual Immunotherapy was processed by 3D high resolution microscopy using a Leica Bond RX Stainer. FFPE tissues were fixed and immunofluorescence microscopy was performed probing with primary antibodies to anti-PD1, anti-PKC-θ (T538p), anti-CD8 and anti-ZEB1 with DAPI. Representative images for each dataset are shown. Graph plots represent the TCFI values for CD8, TNFI for PKC-θ and TNFI for ZEB1 measured using ImageJ minus background (N=40 cells per a patient sample).
IL-2, IFN-γ and TNF-α are markers of T-cell activation and effector capacity whereas ZEB1 is a negative regulator of T-cell responses and is linked with T-cell effector inhibition as well as cancer progression. Accordingly, the expression of these biomarkers was investigated in the context of modulating the PKC-θ pathway. Employing RT-PCR, the present inventors profiled expression of the effect of PKCθi in PBMC cells isolated from CR and PD melanoma liquid biopsies.

[2] = test system: CD8^+ T-cells isolated from melanoma patient's bloods; assay: Immunofluorescence of nuclear PKC-θ and ZEB1 in patient CD8+ T-cells; type: cell-based, human; settings: all patient samples; vehicle or PMA/CI; inhibitor 8 μm; FIG. 3
Description: FIG. 3 is a photographic representation depicting a PKC-θ resistance signature in CD8^+ T-cells. A-B) CD8s were isolated from melanoma patient liquid biopsies (CR=complete response, SD=Stable Disease, PD=progression of disease) and were stimulated with PMA/CI and pre-clinically screened with either vehicle control or PKCθi nuclear peptide inhibitor. Samples were fixed and immunofluorescence microscopy was performed on these cells with primary antibodies for ZEB1, PKC-θ, and CD8. Representative images for each dataset are shown. Graph represents the TNFI for PKC-Theta and TNFI for ZEB1 measured using ImageJ to select the nucleus minus background (n=>20 cells/sample). Plot profiles for each cohort for ZEB1 and PKC-θ are also depicted (RED=ZEB1, Green=PKC-θ) with the PCC indicated. Graphs depicting the % inhibition or induction based on protein expression where also plotted for each protein target relative to untreated sample. C-D) CD8s were isolated from melanoma patient liquid biopsies (CR=complete response, PR=partial response, PD=progression of disease) and were stimulated with PMA/CI and pre-clinically screened with either vehicle control or our PKCθi nuclear peptide inhibitor. […] Graph represents the TNFI for TNF-α and TNFI for IFN-γ measured using ImageJ to select the nucleus minus background (n=>20 cells/sample). […]

RKEIDPPFRPKVK [PKCθi]
expression of IFN-γ ([1]; CR patient cohort): some induction | expression of IL-2 ([1]; CR patient cohort): some induction | expression of TNF-α ([1]; CR patient cohort): some induction | expression of IFN-γ ([1]; PD patient cohort): significantly induced | expression of IL-2 ([1]; PD patient cohort): significantly induced | expression of TNF-α ([1]; PD patient cohort): significantly induced | expression of ZEB1 [2]: strikingly abrogated | expression of nuclear PKC-θ [2]: strikingly abrogated
